In article PMC4117522, “Proteasome Inhibitors Alter Levels of Intracellular Peptides in HEK293T and SH-SY5Y Cells” (PLoS ONE, 2014):

Legend:
[1] = system: HEK293T cell aminopeptidase activity (Leu-AMC cleavage); assay: Aminopeptidase assay with Leu-AMC in HEK293T cell extracts; assay type: biochemical, human; conditions: HEK293T cell extract, 10 µM inhibitor
Protocol: (§1) All enzyme assays described below were performed in the linear range of the assay, as determined from time-course studies. HEK293T cells were lysed by sonication in 50 mM TrisHCl buffer, pH 7.5, containing 40 mM KCl, 5 mM MgCl2, 0.5 mM ATP, and 1 mM DTT (Buffer 1).
(§2) To measure TPP2, the fluorescent substrate was Ala-Ala-Phe-AMC. Aminopeptidase (AP) assays were performed with Leu-AMC and Ala-AMC, which detect leucine aminopeptidase (LAP), puromycin-sensitive aminopeptidase (PSAP), and other enzymes. To measure the effect of aminopeptidase/proteasome inhibitors on cleavage of Ala-Ala-Phe-AMC and Leu-AMC, 1∶50 dilution of the cell extract was pre-incubated with the inhibitor and Buffer 1 for 30 min, followed by addition of 100 µM final concentration of the respective substrate. For Ala-AMC, the same dilution of the cell extract was pre-incubated with the inhibitor and 50 mM MOPS buffer, pH 7.5, containing 40 mM KCl, 5 mM MgCl2, 0.5 mM ATP, and 1 mM DTT (Buffer 2), followed by addition of 100 µM final concentration of the substrate. After incubation at 37°C for 1 hour, enzyme activity was quantified by fluorescence measurement of the substrate (380 nm excitation, 460 nm emission).
(§3) Figure 7 Effect of aminopeptidase inhibitors on Ala-AMC and Leu-AMC cleavage. HEK 293T cell extract (panels A–D) or recombinant PSAP (panels E–F) were treated with increasing concentrations of bestatin or puromycin for 30 minutes followed by the addition of substrate and incubation for 1 hour. Enzyme activity was determined by fluorescence measurement of AMC and expressed as percentage enzyme activity relative to the control without inhibitor. (A) Bestatin inhibition of HEK293T cell extract assayed with Ala-AMC. (B) Bestatin inhibition of HEK293T cell extract assayed with Leu-AMC. (C) Puromycin inhibition of HEK293T cell extract assayed with Ala-AMC. (D) Puromycin inhibition of HEK293T cell extract assayed with Leu-AMC. (E) Puromycin inhibition of purified PSAP assayed with Ala-AMC. (F) Puromycin inhibition of purified PSAP assayed with Leu-AMC. Error bars show standard error of mean (n = 4), points without error bars had error ranges smaller than the symbol size. Statistical analysis was performed using Student’s t-test: *, p≤0.05; **, p≤0.01; ***, p≤0.001; ns, no significant difference (p>0.05) versus the control.
(§4) Figure 8 Effect of proteasome inhibitors on Ala-AMC and Leu-AMC cleavage. HEK 293T cell extract or recombinant PSAP was treated with 10 µM of each of the proteasome inhibitors for 1 hour in addition to a 30 min pre-incubation without the substrate. Enzyme activity was determined by fluorescence measurement of AMC and expressed as percentage enzyme activity relative to the control without inhibitor. Panels A and B represent the effect of proteasome inhibitors on cleavage of Ala-AMC and Leu-AMC respectively, in HEK293T cell extract. […] Error bars show standard error of mean (n = 4). Statistical analysis was performed using Student’s t-test: *, p≤0.05; **, p≤0.01; ***, p≤0.001; ns, no significant difference (p>0.05) versus the control.

[2] = biological target: T1, proteasome (beta 5, chymotrypsin-like activity) in HEK293T cell extract (Homo sapiens, UniProt P20618+P28074); assay: Proteasome activity in HEK293T cell extracts with beta 5-selective substrate Suc-Leu-Leu-Val-Tyr-AMC; assay type: biochemical
T1 construct: endogenous in cells; host or cells: HEK293T
Protocol: as §1
To measure proteasome activity, a 1∶50 dilution of the cell extract was pre-incubated with the inhibitor and Buffer 1 for 30 min, followed by addition of 100 µM final concentration of the proteasome substrate succinyl-Leu-Leu-Val-Tyr-7-amino-4-methylcoumarin (Suc-Leu-Leu-Val-Tyr-AMC). After incubation at 37°C for 1 hour, proteasomal activity was quantified by fluorescence measurement of the substrate (380 nm excitation, 460 nm emission).
Figure 2 Inhibition of proteasome activity in HEK293T cells with various proteasome inhibitors. HEK293T cell extract was treated with increasing concentrations of the indicated compound for […] and incubation for 1 hour […]. Enzyme activity was determined by fluorescence measurement of AMC. The resulting activity is expressed as percent enzyme activity relative to the control reaction without inhibitor.

[3] = system: HEK293T cell aminopeptidase activity (Ala-AMC cleavage); assay: Aminopeptidase assay with Ala-AMC in HEK293T cell extracts; assay type: biochemical, human; conditions: HEK293T cell extract, 10 µM inhibitor
Protocol: as §1, §2, §3, §4

CN1C/C(=C/c2ccc(B(O)O)cc2)C(=O)/C(=C\c2ccc(B(O)O)cc2)C1 [AM114, reference compound]
effect on cleavage of Leu-AMC [1]: without effect | potency relative to clasto-Lactacystin β-lactone (fold less potent) ([2]; Suc-Leu-Leu-Val-Tyr-AMC): approximately 10 fold | inhibition of proteasome activity at the highest concentration tested ([2]; highest concentration tested): ≤ 35% | effect on cleavage of Ala-AMC [3]: without effect
